Data as given in article PMC2576538 (The Journal of Biological Chemistry, 2008).
Ends that are not written are not given here. * marks the point of attachment. Biotin = O=C1N[C@H]2[C@H](CS[C@H]2CCCCC(=O)*)N1

What was measured:
Cpe30 peptide = type: binding, Clostridium perfringens
[1] = target: Biotin-Cpe30 (Clostridium perfringens) (UniProt P01558); assay: SPR
[2] = target: Cpe17 (last C-terminal 17 amino acids of Cpe), biotinylated (Clostridium perfringens) (UniProt P01558); assay: SPR
[3] = target: T1, GST-claudin-4, full length (mouse, UniProt O35054 1-210); assay: SPR
T1 sequence: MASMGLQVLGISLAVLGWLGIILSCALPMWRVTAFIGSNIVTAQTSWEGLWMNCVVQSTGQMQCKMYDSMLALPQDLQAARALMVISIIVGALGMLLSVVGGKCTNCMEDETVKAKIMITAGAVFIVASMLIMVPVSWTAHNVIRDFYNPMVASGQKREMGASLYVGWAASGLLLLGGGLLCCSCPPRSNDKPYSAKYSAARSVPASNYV

“(138)AHNVIRDFYNPM VASGQKREMGASL(160) [B-Ecl2]” was tested, and the “Binding of immobilized Ecl2 peptide to Cpe30, in words” value (“Binding of immobilized Ecl2 peptide” below) (Cpe30 peptide) was “does not bind”.

For “AHNVIRDFYNPMVASGQKREMGASL (disulfide (positions not given here)) [B-lariat-Ecl2]”, the “Binding of immobilized Ecl2 peptide” value (Cpe30 peptide) was “does not bind”.

With AHNVIRDFYNPMVASGQKREMGASL [B-Ecl2-B] the “Binding of immobilized Ecl2 peptide” value (Cpe30 peptide) was “does not bind”.

“GST-Cldn-4.R4 (GST fused to claudin-4 from Ecl2 through the C terminus) (domain or fragment)” was tested, and the Kd [1] was 2.56 nM and the Kd [2] was 1.57 nM.

Biotin-SLDAGQYVLVMKANSSYSGNYPYSILFQKF [Biotin-Cpe30]: binds [3].
